According to ChEMBL document CHEMBL5728678, “Heteroaryl compounds as BTK inhibitors and uses thereof” (2021):

molecular target: Tyrosine-protein kinase BTK (Homo sapiens, UniProt Q06187, C481S); assay: Microfluidic Off-Chip Mobility Shift Assay Protocol for Potency Assessment Against BTK C481S Enzyme: The protocol below describes a microfluidic, off-chip mobility shift kinase assay to measure inherent potency of compounds against BTK C481S enzyme. The mechanics of the assay platform are described by the vendor (PerkinElmer, Hopkinton, Mass.) on their website at the following URL: http://caliperls.com.Briefly, 2.5× stocks of His-TEV-hsBTK(328-659)(C481S) from the Merck Serono Protein Purification Laboratory in Darmstadt, Germany (PCS, Q27/234), 1.6×ATP and appropriate KinKDR peptide substrate (FITC-AHA-[…]-NH2; Tufts University Core Facility custom synthesis) were prepared in kinase reaction buffer consisting of 25 mM MgCl2, 0.015% Brij-35 (30%), 100 mM HEPES, pH 7.5, and 10 mM DTT.5 uL of enzyme buffer and 7.5 uL of ATP/KinKDR peptide substrate mix were added to Matrix (#4315) 384-well, sterile, flat-bottom polypropylene plates (Thermo Fisher Scientific, Hudson, N.H.) with 125 nL of serially diluted compounds prepared in 100% DMSO, and incubated for 90 min. at 25° C. Following the incubation period, reactions were terminated by adding 65 uL quench buffer consisting of 100 mM HEPES, pH 7.5, 0.015% Brij-35 (30%), 0.277% Coating Reagent #3 (PerkinElmer, Mountain View, Calif.), 5% DMSO. Terminated reactions were monitored at −2 PSI, −3000 V/−700 Volts in a LabChip 3000 plate reader from Caliper Life Sciences, a PerkinElmer Company (Hopkinton, Mass.), and the activity was quantified by laser-induced fluorescence measuring the charge/mass difference between substrate and product resulting from peptide phosphorylation. IC50 and efficacy were determined by plotting log [Inhibitor] vs. % Activity in GeneData Screener (Basel, Switzerland).
Sequence (Q06187 2-659 C481S limits assumed): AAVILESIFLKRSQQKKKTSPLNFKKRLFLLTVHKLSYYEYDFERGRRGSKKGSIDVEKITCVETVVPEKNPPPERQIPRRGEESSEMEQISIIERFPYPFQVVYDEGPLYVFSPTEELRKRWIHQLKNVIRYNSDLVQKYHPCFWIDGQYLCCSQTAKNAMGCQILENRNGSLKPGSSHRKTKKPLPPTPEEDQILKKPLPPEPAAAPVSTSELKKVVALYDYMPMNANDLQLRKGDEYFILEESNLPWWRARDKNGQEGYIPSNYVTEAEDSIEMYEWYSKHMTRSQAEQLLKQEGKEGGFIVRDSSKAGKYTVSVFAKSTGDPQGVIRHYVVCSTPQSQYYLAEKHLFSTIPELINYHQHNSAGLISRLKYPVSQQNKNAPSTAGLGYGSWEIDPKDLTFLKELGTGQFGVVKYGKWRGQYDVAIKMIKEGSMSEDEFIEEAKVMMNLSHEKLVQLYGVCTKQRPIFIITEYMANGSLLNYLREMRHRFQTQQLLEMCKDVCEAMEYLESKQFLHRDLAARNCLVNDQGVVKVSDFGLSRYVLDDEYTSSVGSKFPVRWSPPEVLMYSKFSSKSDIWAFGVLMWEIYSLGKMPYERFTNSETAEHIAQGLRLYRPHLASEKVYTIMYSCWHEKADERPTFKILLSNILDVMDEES

IC50 [nM]	SMILES
< 100	CC(C)(C)c1nc(C(=O)NCc2ccc(-c3ccnc4[nH]c(-c5cnn(C6CCOCC6)c5)nc34)cc2F)no1
< 100	Cn1cc(-c2nc3c(-c4cccc(CNC(=O)c5noc(C(C)(C)C)n5)c4)ccnc3[nH]2)cn1
< 100	CC(C)(C)c1nc(C(=O)NCc2ccc(-c3ccnc4[nH]c(-c5cnn(C6COC6)c5)nc34)cc2F)no1

molecular target: Tyrosine-protein kinase BTK (Homo sapiens, UniProt Q06187); assay: Microfluidic Off-Chip Mobility Shift Assay Protocol for Potency Assessment Against BTK Enzyme: Briefly, 2.5× stocks of full-length human BTK (08-080) from CarnaBio USA, Inc., Natick, Mass., 1.6×ATP and appropriate kinKDR peptide substrate (FITC-AHA-[…]-NH2; developed in-house) were prepared in kinase reaction buffer consisting of 25 mM MgCl2, 0.015% Brij-35 (30%), 100 mM HEPES, pH 7.5, and 10 mM DTT. 5 uL of enzyme buffer and 7.5 uL of ATP/kinKDR peptide substrate mix were added to Matrix (#115304) 384-well, sterile, polypropylene plates (Thermo Fisher Scientific, Hudson, N.H.) with 125 nL of serially diluted compounds prepared in 100% DMSO, and incubated for 90 min. at 27° C. Following the incubation period, reactions were stopped by adding 60 uL stop buffer consisting of 100 mM HEPES, pH 7.5, 0.015% Brij-35 (30%), 0.277% Coating Reagent #3 (Caliper Life Sciences, Mountain View, Calif.), 5% DMSO. Stopped reactions were monitored at −2 PSI, −3000 V/−700 V in a LabChip 3000 plate reader from Caliper Life Sciences, a PerkinElmer Company (Hopkinton, Mass.), and the activity was measured by off-chip mobility shift assay measuring the charge/mass difference between substrate and product resulting from peptide phosphorilation. IC50 and efficacy were determined by plotting log [Inhibitor] vs. % Activity in GeneData Screener (Basel. Switzerland).
Sequence (Q06187 whole entry): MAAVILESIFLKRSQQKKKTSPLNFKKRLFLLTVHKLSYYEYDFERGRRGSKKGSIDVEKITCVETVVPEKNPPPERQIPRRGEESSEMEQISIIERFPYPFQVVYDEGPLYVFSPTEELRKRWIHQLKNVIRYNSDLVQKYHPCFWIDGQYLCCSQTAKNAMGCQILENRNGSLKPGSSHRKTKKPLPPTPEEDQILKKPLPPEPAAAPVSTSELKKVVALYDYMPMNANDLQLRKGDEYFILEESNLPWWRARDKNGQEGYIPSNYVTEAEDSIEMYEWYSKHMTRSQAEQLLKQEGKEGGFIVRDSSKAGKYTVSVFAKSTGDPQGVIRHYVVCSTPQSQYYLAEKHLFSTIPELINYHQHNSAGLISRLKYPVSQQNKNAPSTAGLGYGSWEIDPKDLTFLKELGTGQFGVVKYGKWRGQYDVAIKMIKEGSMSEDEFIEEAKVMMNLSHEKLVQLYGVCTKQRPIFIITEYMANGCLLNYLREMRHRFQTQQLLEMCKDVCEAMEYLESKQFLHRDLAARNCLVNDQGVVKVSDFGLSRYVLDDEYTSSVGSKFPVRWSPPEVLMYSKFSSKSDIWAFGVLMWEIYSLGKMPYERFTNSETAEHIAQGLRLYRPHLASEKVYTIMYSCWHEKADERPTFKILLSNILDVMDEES

IC50 [nM]	SMILES
< 100	CCn1cc(-c2nc3c(-c4ccc(CNC(=O)c5cc(C(C)(C)C)on5)c(F)c4)ccnc3[nH]2)cn1
> 5000	CC(C)(C)c1noc(C(=O)NCc2ccc(-c3ccnc4[nH]c([C@@H]5C[C@H]5c5ccccc5)nc34)cc2F)n1
> 5000	Cn1cc(-c2nc3c(-c4ccc(CNc5nccc6c5OCCN6C(=O)OC(C)(C)C)c(F)c4)ccnc3[nH]2)cn1
< 100	CC(C)(C)c1noc(C(=O)NCc2ccc(-c3ccnc4[nH]c(C5=CCNCC5)nc34)cc2F)n1
